In experiment [1] the test system is SKOV3 cells. Briefly: [14C]alanine uptake in non-depleted SKOV3 cells. As to conditions: amino acid replete SKOV3 cells. The experiment is classed as cell-based, human. As for the experimental part: Functional characterisation of plasma membrane transporters in human cancer cells was determined at 37°C using an array of radiolabelled amino acid substrates. Modified Hanks HEPES-buffered salts solution (mHBSS; 137 mM NaCl; 5.4 mM KCl; 2.7 mM K2HPO4; 1 mM CaCl2; 0.5 mM MgCl2; 0.44 mM KH2PO4; 0.4 mM MgSO4; 5 mM D-glucose; 5 mM HEPES; pH 7.4) was used to wash and incubate cells where sodium dependent transport was measured, while N-methyl-D-glucamine (NMDG) and potassium salts substituted sodium in NMDG mHBSS to measure sodium independent uptake. For the assay, cells were seeded in 35 mm dishes and, once confluent, were washed thrice with warm mHBSS solution and incubated with mHBSS containing an 100 µM amino acid at a final specific activity of ≥2000 cpm/nmol (U-[^14C]amino acids were from PerkinElmer). After 6 min, cells were washed thrice with ice-cold mHBSS, lysed with 500 µl of 0.1 M HCl, detached with a cell scraper and triturated. A 400 µl aliquot was used for scintillation counting, while the remainder was saved for protein mass quantification by Bradford assay. Transport rates were normalised to the protein content of the culture dish.

The target in experiment [2] is T1, B0AT1 (SLC6A19) (Homo sapiens, UniProt Q695T7).
T1 construct: expressed in transfected cells
T1 sequence (Q695T7 1-634): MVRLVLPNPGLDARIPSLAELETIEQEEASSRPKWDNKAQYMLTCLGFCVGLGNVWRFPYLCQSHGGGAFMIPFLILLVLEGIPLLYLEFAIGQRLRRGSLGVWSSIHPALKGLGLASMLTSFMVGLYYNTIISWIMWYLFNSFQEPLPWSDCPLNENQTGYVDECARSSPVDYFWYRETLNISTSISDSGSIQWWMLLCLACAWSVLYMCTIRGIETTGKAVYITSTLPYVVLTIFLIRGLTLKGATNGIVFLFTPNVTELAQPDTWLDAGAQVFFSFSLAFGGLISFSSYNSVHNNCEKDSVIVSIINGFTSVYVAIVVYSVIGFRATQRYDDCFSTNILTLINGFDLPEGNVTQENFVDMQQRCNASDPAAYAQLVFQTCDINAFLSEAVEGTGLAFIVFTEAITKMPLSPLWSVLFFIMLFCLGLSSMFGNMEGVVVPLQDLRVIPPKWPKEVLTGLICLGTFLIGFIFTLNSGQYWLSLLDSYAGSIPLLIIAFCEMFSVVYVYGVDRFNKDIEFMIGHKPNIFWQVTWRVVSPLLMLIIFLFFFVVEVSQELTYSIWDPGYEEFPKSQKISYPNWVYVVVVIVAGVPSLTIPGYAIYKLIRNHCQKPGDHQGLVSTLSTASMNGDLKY
T1 sequence (Q9HBJ8 15-222 partner): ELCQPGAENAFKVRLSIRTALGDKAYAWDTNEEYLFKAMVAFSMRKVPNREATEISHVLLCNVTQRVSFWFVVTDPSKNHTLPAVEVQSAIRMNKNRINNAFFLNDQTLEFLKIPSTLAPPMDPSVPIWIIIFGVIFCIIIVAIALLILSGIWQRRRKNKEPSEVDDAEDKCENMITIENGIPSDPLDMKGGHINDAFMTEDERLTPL
The experiment is described as follows: Leucine uptake in CHO cells stably expressing human B0AT1 and collectrin. The experiment is classed as cell-based. To be noted: 150 µM leucine, hit compounds at 30 µM, n = 3.

For experiment [3], the system named is SNAT1/2. Briefly: FMP assay: depolarisation by amino acid substrates in amino acid depleted HCC1806 cells. Type of experiment: cell-based, human. The protocol:
The FLIPR Membrane Potential Blue Explorer Kit (Molecular Devices) was used to characterise inhibitors and to optimise a high-throughput compound screen. Cells were seeded at approximately 60,000 cells/well on a 96-well plate and allowed to attach and grow overnight in a cell incubator. […] Cells were then washed once with mHBSS and incubated with 50 µl of the mHBSS-resuspended FMP assay dye and 50 µl of mHBSS (with or without inhibitors) and incubated at room temperature for 30 min. The plate was then placed in an EnSpire Multimode plate reader (PerkinElmer) and four sequential measurements of fluorescence were recorded as a baseline reference. Immediately after the baseline measurements were taken, 25 µl of 5 mM glutamine dissolved in mHBSS was injected into each well and the plate was shaken orbitally for 5 s before a series of consecutive fluorescence measurements were taken. The excitation wavelength was set to 530 nm and the emission was detected at 565 nm. […] After the assay was complete, the liquid content of the plate was carefully removed, and the cell monolayer inspected to ensure it remained intact throughout the course of the assay.

Data on two compounds can be found in publication PMC9532951, “Identification and characterization of a novel SNAT2 (SLC38A2) inhibitor reveals synergy with glucose transport inhibition in cancer cells” (Frontiers in Pharmacology, 2022).

Where “and” joins values, the source holds several entries; their conditions need not be identical. Identical values can stand only once.

Take `Cc1ccc(S(=O)(=O)N(C)c2ccsc2C(=O)NCc2ccccc2C(F)(F)F)cc1` [Compound 57_E, 3-(N-methyl (4-methylphenyl)sulfonamido)-N-(2-trifluoromethylbenzyl)thiophene-2-carboxamide]: in experiment [1], the “inhibition of [14C]alanine uptake” value was “did not inhibit any transporter in this cell line”. Further, the “Leucine uptake, Mean” value in experiment [2] was 55.2874 nmol / mg protein x 6 min.
In the case of `NC(=O)CC[C@H](N)C(=O)O` [Glutamine, glutamine], in experiment [3] (1 mM), the “FMP response as substrate” value is given as “strongest response”. For the same compound, the Km (as a rule, the substrate concentration at which the rate is half of its maximum) in experiment [3] (FMP signal plateau vs glutamine concentration, HCC1806 AA- (24h)) turned out to be 120 ± 10 µM. Besides, the FMP fluorescence reading in experiment [3] (glutamine 0.01mM, t=60 s) is 68858 and 69253 and 69708; in experiment [3] (glutamine 0.01mM, t=75 s) it was 69325 and 69681 and 70188; in experiment [3] (glutamine 0.01mM, t=90 s), 69269 and 70070 and 70405; in experiment [3] (glutamine 0.01mM, t=105 s), 69763 and 69788 and 70466; in experiment [3] (glutamine 0.03mM (c24-c26), t=60 s), 77460 and 80576 and 83628; in experiment [3] (glutamine 0.03mM (c24-c26), t=75 s), 77730 and 80978 and 84391. In addition, the FMP fluorescence reading in experiment [3] (glutamine 0.03mM (c24-c26), t=90 s) is 78184 and 81512 and 84232; in experiment [3] (glutamine 0.03mM (c24-c26), t=105 s) it was 78227 and 82096 and 85186; in experiment [3] (glutamine 0.03mM (last group, c32-c34), t=60 s), 64072 and 69800 and 70295; in experiment [3] (glutamine 0.03mM (last group, c32-c34), t=75 s), 63883 and 70289 and 71073; in experiment [3] (glutamine 0.03mM (last group, c32-c34), t=90 s) it was 63947 and 70196 and 70790; in experiment [3] (glutamine 0.03mM (last group, c32-c34), t=105 s), 64771 and 70484 and 71450. Further, the FMP fluorescence reading in experiment [3] (glutamine 0.1mM, t=60 s) was 88925 and 96285 and 98180; in experiment [3] (glutamine 0.1mM, t=75 s), 90234 and 97546 and 98972; in experiment [3] (glutamine 0.1mM, t=90 s) it was 91221 and 98690 and 100400; in experiment [3] (glutamine 0.1mM, t=105 s), 92076 and 98971 and 100952; in experiment [3] (glutamine 0.3mM, t=60 s), 99455 and 107961 and 111369; in experiment [3] (glutamine 0.3mM, t=75 s) it was 100398 and 109749 and 113586. Further, the FMP fluorescence reading in experiment [3] (glutamine 0.3mM, t=90 s) is 101543 and 111206 and 114721; in experiment [3] (glutamine 0.3mM, t=105 s) it was 102418 and 111967 and 115020; in experiment [3] (glutamine 1mM, t=60 s) it was 112569 and 120148 and 129663; in experiment [3] (glutamine 1mM, t=75 s), 115039 and 122576 and 131835; in experiment [3] (glutamine 1mM, t=90 s), 116433 and 124735 and 133470; in experiment [3] (glutamine 1mM, t=105 s), 117747 and 125438 and 134724. In addition, the FMP fluorescence reading was 118812 and 126597 and 134693 in experiment [3] (glutamine 1mM, t=120 s); 133412 and 124199 and 129325 in experiment [3] (glutamine 3mM, t=60 s); 135706 and 127374 and 131981 in experiment [3] (glutamine 3mM, t=75 s); 138077 and 129014 and 134980 in experiment [3] (glutamine 3mM, t=90 s); 139888 and 130819 and 136553 in experiment [3] (glutamine 3mM, t=105 s); 140944 in experiment [3] (glutamine 3mM, t=120 s). Besides, the FMP fluorescence reading is 123199 and 132978 and 133617 in experiment [3] (glutamine 10mM, t=60 s); 127611 and 136168 and 137553 in experiment [3] (glutamine 10mM, t=75 s); 130129 and 138788 and 140464 in experiment [3] (glutamine 10mM, t=90 s); 132559 and 141221 and 142567 in experiment [3] (glutamine 10mM, t=105 s).
